± gives the expanded uncertainty stated by the source.
Conditions: 101.33 kPa, Liquid; for viscosity: Capillary tube (Ostwald / Ubbelohde) method; for mass density: Vibrating tube method

viscosity (298.15 K) [mPa·s]	viscosity (303.15 K) [mPa·s]	mass density (303.15 K) [kg/m3]	viscosity (308.15 K) [mPa·s]	viscosity (313.15 K) [mPa·s]	mass density (313.15 K) [kg/m3]	viscosity (318.15 K) [mPa·s]	viscosity (323.15 K) [mPa·s]	mass density (323.15 K) [kg/m3]	viscosity (328.15 K) [mPa·s]	mass density (298.15 K) [kg/m3]	mass density (308.15 K) [kg/m3]	mass density (318.15 K) [kg/m3]	mass density (328.15 K) [kg/m3]	Compound
16.61 ± 0.23	13.58 ± 0.18	1106.38 ± 0.08	11.24 ± 0.15	9.404 ± 0.13	1099.31 ± 0.08	7.945 ± 0.11	6.774 ± 0.094	1092.16 ± 0.08	5.826 ± 0.081	–	–	–	–	OCCO [1,2-ethanediol]
1.087 ± 0.016	0.99 ± 0.02	780.75 ± 0.15	0.905 ± 0.013	0.829 ± 0.012	772.02 ± 0.15	0.761 ± 0.011	0.706 ± 0.01	763.11 ± 0.15	0.648 ± 0.009	785.07 ± 0.15	776.41 ± 0.15	767.59 ± 0.15	758.58 ± 0.16	CCO [ethanol]

Source: the NIST ThermoML archive (doi:10.1016/j.jct.2012.08.024)
